Results taken from paper PMC9571628 (Molecules, 2022).
Values belong to the compound of their own block, whether it stands above or below them.

Key:
[1] = Pharmacokinetic interaction study between SOR and DAPA in rats (oral gavage, plasma by UPLC-MS/MS); conditions: for AUC(0-t) / AUC(0-inf) / CL/F / Cmax / MRT last / MRT inf / Tmax / Vd/F / half-life: n = 6; for AUC(0-inf): AUC0–∞; for CL/F: CLz/F; for MRT last: MRT0-t; for MRT inf: MRT0–∞; for Vd/F: Vz/F; for half-life: t1/2z;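 for all read-outs here: parameters derived by non-compartmental analysis of plasma concentration–time data, with analyte levels measured by UPLC-MS/MS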
Experimental: Analytes were quantified using Ultra-Performance Liquid Chromatography-Tandem Mass Spectrometry (UPLC-MS/MS) which consisted of an LC-30A ultra-performance liquid chromatography (Shimadzu, Kyoto, Japan) and Sciex Triple Quad 5500 tandem triple quadrupole mass spectrometer (AB Sciex, Framingham, MA, USA). Chromatographic separation was performed using an XSelect HSS T3 column (2.1 mm × 100 mm, 2.5 μm, Waters, Milford, MA, USA) at 40 °C by gradient elution. The mobile phase consisted of water with 0.1% formic acid and 5 mM ammonium acetate (phase A) and acetonitrile (phase B), and the gradient elution procedure was as follows: 0–0.5 min, 60–90% B; 0.5–3 min, 90% B; 3–3.1 min, 90–60% B; and 3.1–4 min, 60% B. The injection volume was 5 μL.
A volume of 25 µL plasma samples, 2.5 µL IS mixed working solution, and 150 μL methyl tertbutyl ether was added, then vortex-mixed for 1 min. The mixture was centrifuged at 12,000× g for 10 min. The organic phase was transferred to a new centrifuged tube and evaporated to dryness under a stream of nitrogen at room temperature. The dried samples were redissolved with 100 μL of 50% acetonitrile and briefly vortexed for 1 min, then 5 μL was injected into the UPLC-MS/MS for analysis.
Adult male Sprague-Dawley (SD) rats weighing 230 ± 30 g were provided by Beijing Weitong Lihua Experimental Animal Technology Co., Ltd. (Beijing, China). The license number is SCXK (Beijing) 2016–0011. All experimental procedures for this study were reviewed and approved by the Animal Ethics Committee of Hebei General Hospital (Shijiazhuang, China) (No. 2022072). The rats were adapted to the standard laboratory conditions (12 h dark–light cycle, temperature at approximately 23 ± 2 °C, relative humidity of 50 ± 10%) for a week. All the rats were given access to water freely, while the diet was prohibited for 12 h before administration.
Twenty-four healthy rats were randomly divided into four groups (n = 6 in each group). […] Blood samples were then centrifuged at 3500× g for 10 min at 4 °C, and the supernatant was transferred to another centrifuged tube, then stored in a −80 °C freezer until analysis.
DAS 2.1.1 Software (Mathematical Pharmacology Professional Committee of China, Shanghai, China) was used to calculate pharmacokinetic parameters with non-compartmental analysis. The pharmacokinetic analysis included AUC (area under the concentration–time curve), Cmax (maximum plasma concentration), Tmax (time to maximum plasma concentration), t1/2 (time required to eliminate half of plasma drug concentration), CLz/F (clearance of drug plasma volume per time unit), Vz/F (apparent volume of distribution), and MRT (mean residence time). SPSS 25.0 statistical software (SPSS Inc., Chicago, IL, USA) was used to statistically analyze the above-mentioned pharmacokinetic parameters. Statistical comparisons of the experimental and control groups were conducted using a nonparametric rank-sum test or t-test, depending on the data type; p < 0.05 was considered statistically significant.

[2] = test system: UGT1A1; conditions: cited from earlier work
[3] = test system: CYP450; conditions: cited from earlier work
[4] = Stability of QC samples in rat plasma under different storage and processing conditions; format: physicochemical; conditions: for Accuracy (RE%) / Mean ± SD concentration found: rat plasma, n = 6; for stability in rat plasma: autosampler for 6 h, room temperature for 4 h, three cycles of freezing and thawing (−80 °C to room temperature)
Experimental: The stability of QC samples in rat plasma was tested in six replicates at three concentration levels exposed to different storage and processing conditions: autosampler for 6 h after processing, room temperature for 4 h, −80 °C for 30 days, three freeze–thaw cycles (−80 °C to room temperature).

[5] = test system: Ugt1a7 mRNA; experiment: qRT-PCR of Ugt1a7 mRNA in liver and intestines of rats after multiple doses; format: in vivo
Experimental: The qRT-PCR analysis was used to measure mRNA levels of Ugt1a7 in the liver and intestines of rats. Total RNA was isolated from frozen liver and intestine samples using the TRNzol Universal as per the manufacturer’s instructions. A Bio Tek Epoch (Bio Tek Instruments, Inc., Winooski, VT, USA) was used to quantify the concentration and purity of the total RNA based on the ratio of the absorbance between 260 and 280 nm. RNA samples of 1 μg of were converted to complementary (cDNA) using the FastKing RT Kit. The real-time PCR assays were performed using a two-step amplification method according to the manufacturer’s recommendations in a SLAN-96S Real-Time PCR system (Shanghai Hongshi Medical Technology Co., Ltd. Shanghai, China). The PCR cycling conditions were as follows: 95 °C for 15 min, followed by 40 cycles of 95 °C for 10 s and 60 °C for 32 s. The sequences of primers are listed in Table 6. β-actin was used as an internal control.

[6] = test system: UGT1A9; conditions: cited from earlier work
[7] = cited from earlier work
[8] = set-up: method as in PMID 27561659; conditions: following oral administration of SOR; cited from earlier work
[9] = with metformin; cited from earlier work
[10] = set-up: method as in earlier work; conditions: co-administration of neomycin; cited from earlier work
[11] = test system: human UGT enzymes; set-up: method as in PMID 28065859; conditions: in vitro studies; cited from earlier work
[12] = co-administered with multiple doses of SOR vs control group (DAPA alone)
[13] = male, Sprague-Dawley, rat, in vivo, po, 1 mg/kg, DAPA 1 mg/kg oral with multiple-doses SOR (100 mg/kg, seven days)
[14] = male, Sprague-Dawley, rat, in vivo, po, 1 mg/kg, DAPA 1 mg/kg oral, alone
[15] = Autosampler for 6 h, nominal 15 ng/mL
[16] = Autosampler for 6 h, nominal 800 ng/mL
[17] = Autosampler for 6 h, nominal 1500 ng/mL
[18] = Freeze–thaw stability for three times, nominal 15 ng/mL
[19] = Freeze–thaw stability for three times, nominal 800 ng/mL
[20] = Freeze–thaw stability for three times, nominal 1500 ng/mL
[21] = Room temperature for 4 h, nominal 15 ng/mL
[22] = Room temperature for 4 h, nominal 800 ng/mL
[23] = Room temperature for 4 h, nominal 1500 ng/mL
[24] = −80 °C for 30 days, nominal 15 ng/mL
[25] = −80 °C for 30 days, nominal 800 ng/mL
[26] = −80 °C for 30 days, nominal 1500 ng/mL
[27] = male, Sprague-Dawley, rat, plasma, po, 100 mg/kg, SOR 100 mg/kg oral, alone
[28] = with multiple doses of DAPA vs control group (SOR alone)
[29] = Autosampler for 6 h, nominal 10 ng/mL
[30] = Autosampler for 6 h, nominal 3750 ng/mL
[31] = Freeze–thaw stability for three times, nominal 10 ng/mL
[32] = Freeze–thaw stability for three times, nominal 3750 ng/mL
[33] = Room temperature for 4 h, nominal 10 ng/mL
[34] = Room temperature for 4 h, nominal 3750 ng/mL
[35] = −80 °C for 30 days, nominal 10 ng/mL
[36] = −80 °C for 30 days, nominal 3750 ng/mL

decrease of CLz/F of DAPA [1, 12]: 40%
elevation of MRT0–t of DAPA [1, 12]: 1.48 fold
elevation of MRT0–∞ of DAPA [1, 12]: 1.80 fold
elevation of Tmax of DAPA [1, 12]: 1.43 fold
increase of AUC0–t of DAPA [1, 12]: 1.66 fold
increase of AUC0–∞ of DAPA [1, 12]: 1.80 fold
AUC(0-t) ([1]; male, Sprague-Dawley, rat, in vivo, po, 1 mg/kg, AUC0-t, DAPA 1 mg/kg oral with multiple-doses SOR (100 mg/kg, seven days)): 8570 ± 2860 ng·h/mL
AUC(0-t) ([1]; male, Sprague-Dawley, rat, in vivo, po, 1 mg/kg, AUC0-t, DAPA 1 mg/kg oral, alone): 5160 ± 1030 ng·h/mL
AUC(0-inf) [1, 13]: 9300 ± 4260 ng·h/mL
AUC(0-inf) [1, 14]: 5180 ± 1050 ng·h/mL
CL/F [1, 13]: 2 mL/min/kg
CL/F [1, 14]: 3.33 mL/min/kg
Cmax ([1]; male, Sprague-Dawley, rat, in vivo, po, 1 mg/kg, Cmax, DAPA 1 mg/kg oral with multiple-doses SOR (100 mg/kg, seven days)): 871 ± 167 ng/mL
Cmax ([1]; male, Sprague-Dawley, rat, in vivo, po, 1 mg/kg, Cmax, DAPA 1 mg/kg oral, alone): 846 ± 76.4 ng/mL
MRT last [1, 13]: 9.01 ± 1.22 h
MRT last [1, 14]: 6.1 ± 0.96 h
MRT inf [1, 13]: 11.2 ± 4.86 h
MRT inf [1, 14]: 6.25 ± 1.07 h
Tmax [1, 13]: 0.83 ± 0.41 h
Tmax [1, 14]: 0.58 ± 0.2 h
Vd/F [1, 13]: 1.12 ± 0.1 L/kg
Vd/F [1, 14]: 1.27 ± 0.19 L/kg
half-life [1, 13]: 7.95 ± 4.03 h
half-life [1, 14]: 4.51 ± 0.67 h
Accuracy (RE%) [4, 15]: −0.4%
Mean ± SD concentration found [4, 15]: 14.93 ± 0.83 ng/mL
Accuracy (RE%) [4, 16]: 3.8%
Mean ± SD concentration found [4, 16]: 830.00 ± 15.05 ng/mL
Accuracy (RE%) [4, 17]: 9.6%
Mean ± SD concentration found [4, 17]: 1643.33 ± 32.66 ng/mL
Accuracy (RE%) [4, 18]: 1.2%
Mean ± SD concentration found [4, 18]: 15.18 ± 0.87 ng/mL
Accuracy (RE%) [4, 19]: −3.8%
Mean ± SD concentration found [4, 19]: 769.83 ± 44.56 ng/mL
Accuracy (RE%) [4, 20]: −7.4%
Mean ± SD concentration found [4, 20]: 1388.33 ± 54.19 ng/mL
Accuracy (RE%) [4, 21]: −0.7%
Mean ± SD concentration found [4, 21]: 14.90 ± 0.49 ng/mL
Accuracy (RE%) [4, 22]: 11.1%
Mean ± SD concentration found [4, 22]: 889.00 ± 15.43 ng/mL
Accuracy (RE%) [4, 23]: 10.2%
Mean ± SD concentration found [4, 23]: 1653.33 ± 21.60 ng/mL
stability in rat plasma ([4]; −80 °C for 30 days): stable
Accuracy (RE%) [4, 24]: 2.9%
Mean ± SD concentration found [4, 24]: 15.43 ± 1.07 ng/mL
Accuracy (RE%) [4, 25]: 2.8%
Mean ± SD concentration found [4, 25]: 822.17 ± 21.66 ng/mL
Accuracy (RE%) [4, 26]: −1.1%
Mean ± SD concentration found [4, 26]: 1483.33 ± 19.66 ng/mL
Structure (SMILES): CCOc1ccc(Cc2cc([C@@H]3O[C@H](CO)[C@@H](O)[C@H](O)[C@H]3O)ccc2Cl)cc1 [DAPA, Dapagliflozin]
UGT1A1 inhibitor strength [2]: moderate
share metabolized by CYP450 [3]: < 10%
effect on the expression of Ugt1a7 in the intestines ([5]; DAPA administered to rats for seven consecutive days (1 mg/kg), intestines): no significant effect
inhibition of mRNA expression of Ugt1a7 in the liver ([5]; DAPA administered to rats for seven consecutive days (1 mg/kg), liver): 59.31%
UGT1A9 inhibitor strength [6]: moderate
increase of exposure of DAPA ([7]; with mefenamic acid (a strong UGT1A9 inhibitor)): 51%
reduction of exposure of DAPA ([7]; with rifampin (a pleiotropic enzyme inducer)): 22%

Structure (SMILES): CNC(=O)c1cc(Oc2ccc(NC(=O)Nc3ccc(Cl)c(C(F)(F)F)c3)cc2)ccn1 [SOR, Sorafenib]
AUC(0-t) ([1]; SOR 100 mg/kg oral, alone): 62,701.33 ± 16,697.65 μg/L × h
Cmax ([1]; SOR 100 mg/kg oral, alone): 1547.87 ± 136.94 ng/mL
shape of pharmacokinetic curve of SOR ([1]; after 72 h of SOR gavage): second absorption peak
AUC(0-inf) [1, 27]: 63700 ng·h/mL
CL/F [1, 27]: 28.2 mL/min/kg
MRT last [1, 27]: 47.1 ± 9.48 h
MRT inf [1, 27]: 48.7 ± 10.5 h
Tmax [1, 27]: 7.5 ± 0.55 h
Vd/F [1, 27]: 37.4 ± 9.78 L/kg
half-life [1, 27]: 17.5 ± 5.65 h
change of t1/2z, MRT0–t and MRT0–∞ of SOR between the groups ([1]; with multiple doses of DAPA vs SOR alone): no statistically significant changes
decrease of AUC0–t of SOR [1, 28]: 50.5%
decrease of AUC0–∞ of SOR [1, 28]: 46.2%
decrease of Cmax of SOR [1, 28]: 41.6%
Accuracy (RE%) [4, 29]: 0.9%
Mean ± SD concentration found [4, 29]: 10.09 ± 0.53 ng/mL
Accuracy (RE%) [4, 17]: 2.6%
Mean ± SD concentration found [4, 17]: 1538.33 ± 36.56 ng/mL
Accuracy (RE%) [4, 30]: −0.9%
Mean ± SD concentration found [4, 30]: 3716.67 ± 66.23 ng/mL
Accuracy (RE%) [4, 31]: −1.7%
Mean ± SD concentration found [4, 31]: 9.84 ± 0.34 ng/mL
Accuracy (RE%) [4, 20]: 3.3%
Mean ± SD concentration found [4, 20]: 1550.00 ± 12.65 ng/mL
Accuracy (RE%) [4, 32]: −4.0%
Mean ± SD concentration found [4, 32]: 3601.67 ± 164.00 ng/mL
Accuracy (RE%) [4, 33]: 6.8%
Mean ± SD concentration found [4, 33]: 10.68 ± 0.55 ng/mL
Accuracy (RE%) [4, 23]: −3.4%
Mean ± SD concentration found [4, 23]: 1448.33 ± 18.35 ng/mL
Accuracy (RE%) [4, 34]: −5.8%
Mean ± SD concentration found [4, 34]: 3533.33 ± 66.23 ng/mL
stability in rat plasma ([4]; −80 °C for 30 days): stable
Accuracy (RE%) [4, 35]: 2.0%
Mean ± SD concentration found [4, 35]: 10.20 ± 0.39 ng/mL
Accuracy (RE%) [4, 26]: 2.2%
Mean ± SD concentration found [4, 26]: 1533 ± 40.33 ng/mL
Accuracy (RE%) [4, 36]: −4.2%
Mean ± SD concentration found [4, 36]: 3593.33 ± 142.22 ng/mL
downregulation of mRNA expression of Ugt1a7 in the intestines ([5]; multiple doses of SOR (100 mg/kg, seven days), rat intestines): ~32.09%
downregulation of mRNA expression of Ugt1a7 in the liver ([5]; multiple doses of SOR (100 mg/kg, seven days), rat liver): ~32.50%
time at which maximum plasma concentrations are reached [8]: approximately 3 h
change of exposure to SOR [9]: halved
decrease of SOR exposure [10]: 54%
inhibition of human UGT enzymes [11]: one of the most powerful inhibitors
